Patent US5409946A, “Isoxazole, isothiazole and pyrazole compounds that enhance cognitive function” (Abbott Laboratories, priority 1993, dated 1995)
“Also recorded” adds a separate entry of the source.

Key:
[1] = tested on: retention of the avoidance response; test: Inhibitory avoidance test; assay type: in vivo
From the text: The inhibitory (or sometimes called passive) avoidance (IA) test is a well-accepted animal model for learning/memory and is widely used to assess the activity of novel cognition enhancers in enhancing cognitive function (Wanibuchi et al., Eur. J. Pharmacol., 1990, 187:479). According to this test, animals are placed in the illuminated (12×14×11 cm) portion of a two-chambered box, from which they enter through a guillotine door to the larger (24×13.5×12 cm) dark compartment of the box. Entry to the dark compartment is accompanied by a mild (0.35 mA), brief (2 seconds) footshock. Initial latencies to cross are recorded, with an imposed 60 second ceiling. Following a 24 hour retention interval, animals are returned to the illuminated chamber, and latency to return to the dark compartment is again recorded, with a ceiling of 180 seconds. No footshock is administered on the test day.
Twelve animals were used in each group.

[2] = tested on: time spent in the open arms (anxiolytic activity); test: Mouse elevated plus-maze; assay type: in vivo, CD1 mice
From the text: The mouse elevated plus-maze is a commonly-used conflict test that probes anxiolytic activity of test compounds (Lister, Psychopharmacology, 1987, 92 180). It is based on the fact that exposure of mice to an elevated open arm leads to an avoidance response considerably stronger than that evoked by exposure to an enclosed arm.
The apparatus required to perform this test is made of plywood and consists of two open arms (17×8 cm) and two enclosed arms (17×8×15 cm) extending from a central platform (8×8 cm). It is mounted on a plywood base rising 39 cm above the floor. Mice are released on the central platform and the time spent in the open and enclosed arms is recorded during a 5 minute test period.
The compound of Example 2 (0.0108-1.08 μmol/kg, i.p.) was administered to CD1 mice (n=12 per group) 15 minutes before the test.

Question: With `Cc1cc([C@@H]2CCCN2C)on1.O=C(O)C(=O)O` [Example 2, 3-Methyl-5-(1-methyl-2(S)-pyrrolidinyl)-isoxazole oxalate salt] as the compound, how does the “equally efficacious at fraction of the dose of (-)-nicotine in IA” value ([1]; dose relative to (-)-nicotine) read?
Answer: 1/17

Question: What about the “Inhibitory Avoidance (IA) result” value ([1]; i.p. 15 min before training, retention at 24 h, p<0.05, oxalate salt) of the same compound?
Answer: significantly facilitated the retention of the avoidance response; also recorded: significant

Question: What about the “Elevated Plus-Maze (EPM) doses with significant effect” value ([2]; i.p., p<0.05) of the same compound?
Answer: 0.036 to 1.08 µmol/kg

Question: And the “Elevated Plus-Maze (EPM) result” value ([2]; i.p., time in open arms, p<0.05, oxalate salt)?
Answer: clear anxiolytic response; also recorded: significant

Question: What about the “anxiolytic potency relative to (-)-nicotine” value ([2]; more potent than (-)-nicotine) of the same compound?
Answer: at least 10 fold
